The results in this text go back to US10662146B2, “Prodrugs of fencamfamine” (Praxis Bioresearch, LLC, priority 2015, dated 2020).

A short description of series [1]: Single dose intravenous PK study in male Sprague Dawley rats (plasma by LC-MS/MS). Format: in vivo. How it is done: We describe here PK results of prodrugs of PRX-002 (−) or (+) isomers. All doses of prodrugs were administered such that they were equivalent to 5 mg/kg of PRX-002 (−) or (+) for oral studies and 2 mg/kg PRX-002 (−) or (+) for intravenous studies in male Sprague-Dawley (MSD) rats. Higher doses of up to 10 or 15 mg/kg [again equivalent to PRX-002 (−)] were used in some studies (as specified)]. Formulation preparation, dose administration and time of sample collection was as follows.
(§1) Adult male Sprague Dawley Rats aged 8-10 weeks were used for the study. Animals were administered the test item by Intravenous bolus route with a dose of 2 mg/kg body weight at dose volume of 5.0 mL/kg body weight. Under mild isoflurane anesthesia, blood specimens were collected by retro-orbital puncture method using capillary tubes into pre-labeled tubes containing anticoagulant (K2EDTA-2 mg/mL blood) during the next 24 hours of post dose as mentioned in below table. For blood sampling at multiple time points, right and left eyes were used alternatively for blood collection. Collected blood specimens were centrifuged at 4000 rpm, 4° C. for 10 minutes and plasma were separated and stored at −80° C. until analysis.
Blood was collected as outlined in Table 39.2 (IV).
Test item PRX-P4-003 was weighed and transferred to a graduated tube. Then 600 μL of PEG 400 (v/v) was added and vortex mixed thoroughly until the test item was completely dissolved. Then 1.800 mL of Hydroxypropyl-β-cyclodextrin (HPβCD, 50% w/v) was added and vortex mixed thoroughly. The final volume was then made up to 3.600 mL with sterile water for injection (SWFI, v/v) with final formulation strength of 5.16 mgA/mL. […] This formulation was freshly prepared before the administration to animals.
as §1, with “administered with a PRX-P4-003” for “administered the test item”, “of 10” for “of 2”, “of 5” for “of 5.0”
Test item PRX-P5-006 was weighed and transferred to a graduated tube. Then 500 μL of DMSO (v/v) was added vortex mixed thoroughly until the test item was completely dissolved. Then 4000 μL of Hydroxypropyl-β-cyclodextrin (HPβCD, 50% w/v) was added and vortex mixed thoroughly. Then 2500 μL of PEG 400 (v/v) was added and vortex mixed thoroughly. The final volume was then made up to 10000 μL with sterile water for injection (SWFI, v/v) with final formulation strength of 3.97 mg/mL. […] This formulation was freshly prepared before the administration to animals.
as §1, with “administered with a PRX-P5-006” for “administered the test item”, “of 15” for “of 2”, “of 10” for “of 5.0”
The plasma concentrations of fencamfamine were measured by LC-MS/MS over time. […] The release of fencamfamine from the prodrugs varied depending on the chain length of the fatty acid linkers attached to fencamfamine. […]

The subject of series [2] is spontaneous locomotor activity. In words: Spontaneous locomotor activity (sLMA), intravenous administration. Format: in vivo, Male SD rats. The settings on record: i.v. 25.8 mg/kg, equivalent to 10 mg/kg of PRX-002 (−), 90 min recording, vs vehicle. Here is the method:
Male SD rats were intravenously administered with PRX-002(−) (2 mg/kg) and prodrug PRX-P4-003 [(25.8 mg/kg, equivalent to 10 mg/kg of PRX-002 (−)], and vehicle just before sLMA test.
Vehicle was: 10% PEG 400 (v/v)+30% (v/v) of (50% w/v) Hydroxypropyl-ß-cyclodextrin in water+60% (v/v) sterile water for injection (SWFI): 1 ml/kg volume.
PRX-P4-003 solution was: 25.8 mg/ml PRX-P4-003 (25.8 mg/kg: equivalent to 10 mg/ml active drug, i.v. @volume of 1 ml/kg). 42.3 mg PRX-P4-003 was added to vehicle 1.639 ml, vortexed for 30 min under room temperature to get a uniform suspension solution, suspension solution was continuously stirred during dosage.
The PRX-P4-002(−) solution was: 2 mg/ml PRX-P4-002(−) (2 mg/kg, i.v.@volume of 1 ml/kg). 4.5 mg PRX-002(−) was added to 2.25 ml Vehicle, vortexed for 30 min under room temperature to get a clear solution, the solution was continuously stirred during dosage.
Rat was placed at the center of test chamber for the 90 min sLMA video recording. (n=3/group).

The structures appear in SMILES notation. Entries after “also recorded” stand apart in the source; their conditions may differ. Read-outs that look alike come from different tables or passages of the source.

By Cmax is commonly meant the maximum level reached in the sampled fluid or tissue. As usually defined, the AUC is the area under the concentration-time curve, a measure of exposure. As usually defined, the Tmax is the time at which the peak concentration occurs. For `CCCCCCCCCCCCCCCCCC(=O)OCOC(=O)N(CC)C1C2CCC(C2)C1c1ccccc1` (single isomer, unassigned) [PRX-P4-003, N-(Octadecanoyloxymethoxycarbonyl)-(−)-N-ethyl-3-phenylbicyclo[2.2.1]heptan-2-amine], the “Plasma concentration of PRX-P4-003” value in series [1] (PRX-P4-003 IV 2 mg/kg b.w., 0.08 h, mean) worked out at 171.96; in series [1] (PRX-P4-003 IV 2 mg/kg b.w., 0.25 h, mean), 47.94; in series [1] (PRX-P4-003 IV 2 mg/kg b.w., 0.50 h, mean), 26.73; in series [1] (PRX-P4-003 IV 2 mg/kg b.w., 1.00 h, mean), 20.03; in series [1] (PRX-P4-003 IV 2 mg/kg b.w., 2.00 h, mean) it was 18.29; in series [1] (PRX-P4-003 IV 2 mg/kg b.w., 4.00 h, mean), 14.23. Moreover, the “Plasma concentration of PRX-P4-003” value in series [1] (PRX-P4-003 IV 2 mg/kg b.w., 6.00 h, mean) is given as 10.72; in series [1] (PRX-P4-003 IV 2 mg/kg b.w., 24.00 h, mean), 0.00; in series [1] (PRX-P4-003 IV 10 mg/kg b.w., 0.08 h, mean) it was 199.64; in series [1] (PRX-P4-003 IV 10 mg/kg b.w., 0.25 h, mean) it was 27.98; in series [1] (PRX-P4-003 IV 10 mg/kg b.w., 0.50 h, mean), 8.96; in series [1] (PRX-P4-003 IV 10 mg/kg b.w., 1.00 h, mean) it was 0.00. In addition, the “Plasma concentration of PRX-P4-003” value was 0.00 in series [1] (PRX-P4-003 IV 10 mg/kg b.w., 2.00 h, mean); 0.00 in series [1] (PRX-P4-003 IV 10 mg/kg b.w., 4.00 h, mean); 0.00 in series [1] (PRX-P4-003 IV 10 mg/kg b.w., 6.00 h, mean); 0.00 in series [1] (PRX-P4-003 IV 10 mg/kg b.w., 24.00 h, mean). For the same compound, the “AUC% extrap of PRX-P4-003” value in series [1] (PRX-P4-003 IV 2 mg/kg, mean) is reported as 32.475 ± 83.3890%. Besides, the “Conversion of pro-drug form to active form PRX-002(−) isomer in plasma” value in series [1] (PRX-P4-003 IV administration (FIG. 2)) is listed as “minimal amounts”. In series [1] (PRX-P4-003 IV, even at higher dose of 10 mg/kg (FIG. 3)), the “Amount of parent PRX-002 (−) generated” value was “very limited amount”. The Cmax in series [1] (male, Sprague Dawley, rat, plasma, iv, 2 mg/kg, IV 2 mg/kg [equivalent to PRX-002 (−)], analyte: prodrug in plasma, mean, read-out: IV PK Parameters Cmax, Prodrug) came to 0.172 ± 0.0626 µg/mL; in series [1] (male, Sprague-Dawley, rat, plasma, iv, 2 mg/kg, PRX-P4-003 IV 2 mg/kg, mean, read-out: Cmax of PRX-P4-003), 0.172 ± 0.0626 µg/mL. For the same compound, the AUC in series [1] (male, Sprague Dawley, rat, IV 2 mg/kg [equivalent to PRX-002 (−)], analyte: prodrug in plasma, mean, read-out: IV PK Parameters AUC, Prodrug) turned out to be 0.133 ± 0.0325 µg·h/mL. The Tmax is 4.8 min in series [1] (male, Sprague Dawley, rat, IV 2 mg/kg [equivalent to PRX-002 (−)], analyte: prodrug in plasma, mean, read-out: IV PK Parameters Tmax, Prodrug) and 4.8 min in series [1] (male, Sprague-Dawley, rat, plasma, PRX-P4-003 IV 2 mg/kg, mean, read-out: Tmax of PRX-P4-003). The AUC(0-inf) in series [1] (male, Sprague-Dawley, rat, plasma, iv, 2 mg/kg, PRX-P4-003 IV 2 mg/kg, mean, read-out: AUCinf of PRX-P4-003) was determined as 0.216 ± 0.0834 µg·h/mL. Moreover, the AUC(0-t) in series [1] (male, Sprague-Dawley, rat, plasma, iv, 2 mg/kg, PRX-P4-003 IV 2 mg/kg, mean, read-out: AUClast of PRX-P4-003) came out at 0.133 ± 0.0325 µg·h/mL. Also, in series [1] (male, Sprague-Dawley, rat, plasma, iv, 2 mg/kg, PRX-P4-003 IV 2 mg/kg, mean, read-out: CL of PRX-P4-003), the clearance was found to be 10.3 ± 4.16 L/h/kg. For the same compound, the MRT last in series [1] (male, Sprague-Dawley, rat, plasma, iv, 2 mg/kg, PRX-P4-003 IV 2 mg/kg, mean, read-out: MRTlast of PRX-P4-003) was 1.84 ± 0.713 h. In series [1] (male, Sprague-Dawley, rat, plasma, iv, 2 mg/kg, PRX-P4-003 IV 2 mg/kg, mean, read-out: T1/2 of PRX-P4-003 (converted)), the half-life was 3.35 ± 2.18 h. The Vd in series [1] (male, Sprague-Dawley, rat, plasma, iv, 2 mg/kg, PRX-P4-003 IV 2 mg/kg, mean, read-out: Vss of PRX-P4-003) turned out to be 42 ± 19.9 L/kg. Moreover, the “Spontaneous locomotor activity (sLMA): total traveling distance and duration” value in series [2] is “no increase in sLMA; also recorded: practically no change”.
For `CCN[C@H]1[C@H]2CC[C@H](C2)[C@@H]1c1ccccc1` [PRX-002 (+) Isomer, (1S,2S,3R,4R)—N-Ethyl-3-phenylbicyclo[2.2.1]heptan-2-amine, reference compound], the AUC(0-inf) in series [1] (male, Sprague Dawley, rat, plasma, iv, 2 mg/kg, single IV dose 2 mg/kg b.w., mean plasma PK parameters (Table 39.27), read-out: AUCinf) was 0.268 ± 0.0235 µg·h/mL. Also, the AUC(0-t) in series [1] (male, Sprague Dawley, rat, plasma, iv, 2 mg/kg, single IV dose 2 mg/kg b.w., mean plasma PK parameters (Table 39.27), read-out: AUClast) was 0.25 ± 0.0152 µg·h/mL. The C0 in series [1] (male, Sprague Dawley, rat, plasma, iv, 2 mg/kg, single IV dose 2 mg/kg b.w., mean plasma PK parameters (Table 39.27), read-out: C0) amounted to 0.291 ± 0.0618 µg/mL. In addition, in series [1] (male, Sprague Dawley, rat, plasma, iv, 2 mg/kg, single IV dose 2 mg/kg b.w., mean plasma PK parameters (Table 39.27), read-out: CL), the clearance was 7.5 ± 0.635 L/h/kg. Moreover, the Cmax in series [1] (male, Sprague Dawley, rat, plasma, iv, 2 mg/kg, single IV dose 2 mg/kg b.w., mean plasma PK parameters (Table 39.27), read-out: Cmax) stood at 0.234 ± 0.0379 µg/mL. For the same compound, the MRT last in series [1] (male, Sprague Dawley, rat, plasma, iv, 2 mg/kg, single IV dose 2 mg/kg b.w., mean plasma PK parameters (Table 39.27), read-out: MRTlast) turned out to be 1.05 ± 0.071 h. For the same compound, in series [1] (male, Sprague Dawley, rat, plasma, iv, 2 mg/kg, single IV dose 2 mg/kg b.w., mean plasma PK parameters (Table 39.27), read-out: T1/2 (converted)), the half-life is 1.08 ± 0.152 h. Besides, the Vd in series [1] (male, Sprague Dawley, rat, plasma, iv, 2 mg/kg, single IV dose 2 mg/kg b.w., mean plasma PK parameters (Table 39.27), read-out: Vss) was 10.1 ± 0.51 L/kg. The Tmax in series [1] (male, Sprague Dawley, rat, single IV dose 2 mg/kg b.w., mean plasma PK parameters (Table 39.27), read-out: Tmax) was 4.8 min. Moreover, the AUCextrap in series [1] (single IV dose 2 mg/kg b.w., mean plasma PK parameters (Table 39.27)) was 6.639 ± 2.427%.
